Here are results for 24 molecules from patent US20240368135A1 (VERTEX PHARMACEUTICALS INCORPORATED, priority 2021, published 2024).

The assay deals with human NaV 1.8 (Homo sapiens, UniProt Q9Y5Y9). The assay can be described thus: E-VIPR assay detecting and measuring NaV inhibition properties. The class given is cell-based. Conditions: HEK cells expressing truncated human NaV 1.8; no human serum; read-out: IC50 in the E-VIPR Assay. The method in brief:
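Membrane potential was followed by coumarin/oxonol FRET during electrical field stimulation of matrigel-seeded HEK cells carrying truncated human NaV1.8 plus KIR2.1. Dosing used 11 points, 3-fold steps, top 300 nM final, 0.625% DMSO, with or without 25% human serum.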

human NaV 1.8, sequence (Q9Y5Y9 126-399 limits assumed): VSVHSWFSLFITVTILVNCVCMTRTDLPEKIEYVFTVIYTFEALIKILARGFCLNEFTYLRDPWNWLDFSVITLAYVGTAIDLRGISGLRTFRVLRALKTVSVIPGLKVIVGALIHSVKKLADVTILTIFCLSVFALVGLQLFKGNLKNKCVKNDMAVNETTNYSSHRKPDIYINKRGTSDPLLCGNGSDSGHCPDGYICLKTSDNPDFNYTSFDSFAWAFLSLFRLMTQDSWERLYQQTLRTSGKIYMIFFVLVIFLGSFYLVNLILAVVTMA
human NaV 1.8, sequence (Q9Y5Y9 660-890 limits assumed): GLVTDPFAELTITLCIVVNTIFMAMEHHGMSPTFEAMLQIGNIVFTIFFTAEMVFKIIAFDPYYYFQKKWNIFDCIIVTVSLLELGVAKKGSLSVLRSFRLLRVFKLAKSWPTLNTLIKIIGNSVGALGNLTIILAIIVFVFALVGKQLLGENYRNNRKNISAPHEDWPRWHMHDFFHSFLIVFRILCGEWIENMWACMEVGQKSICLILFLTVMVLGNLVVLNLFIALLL
human NaV 1.8, sequence (Q9Y5Y9 1148-1722 limits assumed): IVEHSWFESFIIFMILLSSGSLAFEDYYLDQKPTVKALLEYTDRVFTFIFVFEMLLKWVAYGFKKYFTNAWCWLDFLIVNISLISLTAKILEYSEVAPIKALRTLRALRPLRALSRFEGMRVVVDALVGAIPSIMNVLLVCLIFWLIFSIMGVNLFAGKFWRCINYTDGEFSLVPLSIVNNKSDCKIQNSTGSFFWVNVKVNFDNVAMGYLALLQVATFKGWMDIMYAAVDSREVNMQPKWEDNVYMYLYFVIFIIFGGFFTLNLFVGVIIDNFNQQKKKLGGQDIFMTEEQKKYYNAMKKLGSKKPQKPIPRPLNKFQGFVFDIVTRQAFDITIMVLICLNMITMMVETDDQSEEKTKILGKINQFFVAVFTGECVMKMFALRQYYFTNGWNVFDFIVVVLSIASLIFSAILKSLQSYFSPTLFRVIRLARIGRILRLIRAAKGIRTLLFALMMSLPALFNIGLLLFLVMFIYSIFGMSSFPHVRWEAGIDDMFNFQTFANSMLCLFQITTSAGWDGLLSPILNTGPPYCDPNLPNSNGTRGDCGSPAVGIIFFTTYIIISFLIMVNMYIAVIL

Turning to `COC[C@@H](O)Cc1cc(NC(=O)[C@@H]2O[C@@](C)(C(F)(F)F)[C@@H](C)[C@H]2c2ccc(F)c(F)c2OC)ccn1` [Compound 369, (2R,3S,4S,5R)-3-(3,4-difluoro-2-methoxyphenyl)-N-(2-((S)-2-hydroxy-3-methoxypropyl)pyridin-4-yl)-4,5-dimethyl-5-(trifluoromethyl)tetrahydrofuran-2-carboxamide], the IC50 (as a rule, the concentration at which inhibition is half-maximal) is below 10 nM.

Take `COc1c([C@H]2[C@H](C(=O)Nc3cc(C4(N)CCOC4)ncc3F)O[C@@](C)(C(F)(F)F)[C@H]2C)ccc(F)c1F` (single isomer, unassigned) [Compound 348, rel-(2R*,3S*,4S*,5R*)-N-(2-(3-aminotetrahydrofuran-3-yl)-5-fluoropyridin-4-yl)-3-(3,4-difluoro-2-methoxyphenyl)-4,5-dimethyl-5-(trifluoromethyl)-tetrahydrofuran-2-carboxamide]: the half-maximal inhibitory concentration (IC50) was 10 to 100 nM.

For the molecule `COc1c([C@H]2[C@H](C(=O)Nc3ccnc(C(C)(O)CO)c3)O[C@@](C)(C(F)(F)F)[C@H]2C)ccc(F)c1F` (relative stereo) [Compound 3, rel-(2R*,3S*,4S*,5R*)-3-(3,4-difluoro-2-methoxyphenyl)-N-(2-(1,2-dihydroxypropan-2-yl)pyridin-4-yl)-4,5-dimethyl-5-(trifluoromethyl)tetrahydrofuran-2-carboxamide], the half-maximal inhibitory concentration (IC50) is below 10 nM.

For `COc1c([C@H]2[C@H](C(=O)Nc3cc(CO)nn3C)O[C@@](C)(C(F)(F)F)[C@H]2C)ccc(F)c1F` [Compound 20, (2R,3S,4S,5R)-3-(3,4-difluoro-2-methoxy-phenyl)-N-[5-(hydroxymethyl)-2-methyl-pyrazol-3-yl]-4,5-dimethyl-5-(trifluoromethyl)tetrahydrofuran-2-carboxamide], the IC50 is 10 to 100 nM.

Turning to `COc1c([C@@H]2C[C@](C)(C(F)(F)F)O[C@H]2C(=O)Nc2ccnc(C(C)(O)CO)c2)ccc(F)c1F` (single isomer, unassigned) [Compound 701], the IC50 fell in the range of 10 to 100 nM.

On to `CNC(=O)COc1c([C@H]2[C@H](C(=O)Nc3cn(C(F)F)nc3C)O[C@@](C)(C(F)(F)F)[C@H]2C)ccc(F)c1F` [Compound 607, (2R,3S,4S,5R)-3-(3,4-difluoro-2-(2-(methylamino)-2-oxoethoxy)phenyl)-N-(1-(difluoromethyl)-3-methyl-1H-pyrazol-4-yl)-4,5-dimethyl-5-(trifluoromethyl)tetrahydrofuran-2-carboxamide], for which the IC50 lay in the range of 10 to 100 nM.

As for `CN=S(C)(=O)c1ccc(NC(=O)[C@@H]2O[C@@](C)(C(F)(F)F)[C@@H](C)[C@H]2c2ccc(F)c(F)c2OC)cn1` (single isomer, unassigned) [Compound 338], the IC50 fell in the range of 10 to 100 nM.

As for `COc1c([C@H]2[C@H](C(=O)Nc3ccnc(C(C)(N)CO)c3)O[C@@](C)(C(F)(F)F)[C@H]2C)ccc(F)c1F` (single isomer, unassigned) [Compound 358, rel-(2R*,3S*,4S*,5R*)-N-(2-(2-amino-1-hydroxypropan-2-yl)pyridin-4-yl)-3-(3,4-difluoro-2-methoxyphenyl)-4,5-dimethyl-5-(trifluoromethyl)-tetrahydrofuran-2-carboxamide], the IC50 was below 10 nM.

`COc1c([C@H]2[C@H](C(=O)Nc3ccnc(N4C[C@H]5CC[C@H](N5)C4=O)c3)O[C@@](C)(C(F)(F)F)[C@H]2C)ccc(F)c1F` (single isomer, unassigned) [Compound 493, rel-(2R*,3S*,4S*,5R*)-3-(3,4-difluoro-2-methoxyphenyl)-4,5-dimethyl-N-(2-((1S,5R)-2-oxo-3,8-diazabicyclo[3.2.1]octan-3-yl)pyridin-4-yl)-5-(trifluoromethyl)tetrahydrofuran-2-carboxamide]: the IC50 lay within 10 to 100 nM.

Take `COc1c(C2C(C(=O)Nc3cc[n+]([O-])c(C(O)CO)c3)OC(C)(C(F)(F)F)C2C)ccc(F)c1F` (stereo not drawn) [Compound 210, 3-(3,4-difluoro-2-methoxy-phenyl)-N-[2-(1,2-dihydroxyethyl)-1-oxido-pyridin-1-ium-4-yl]-4,5-dimethyl-5-(trifluoromethyl)tetrahydrofuran-2-carboxamide]: the IC50 lay within 10 to 100 nM.

On to `COc1c([C@H]2[C@H](C(=O)Nc3ccnc(N4CCN(C)CC4=O)c3)O[C@@](C)(C(F)(F)F)[C@H]2C)ccc(F)c1F` [Compound 379, (2R,3S,4S,5R)-3-(3,4-difluoro-2-methoxyphenyl)-4,5-dimethyl-N-(2-(4-methyl-2-oxopiperazin-1-yl)pyridin-4-yl)-5-(trifluoromethyl)tetrahydrofuran-2-carboxamide], for which the IC50 was below 10 nM.

`COc1c(C2C(C(=O)Nc3cccnc3)OC(C)(C(F)(F)F)C2C)ccc(F)c1F` (single isomer, unassigned) [Compound 30, 3-(3,4-difluoro-2-methoxy-phenyl)-4,5-dimethyl-N-(3-pyridyl)-5-(trifluoromethyl)tetrahydrofuran-2-carboxamide]: the IC50 was below 10 nM.

As to `COc1c([C@H]2[C@H](C(=O)Nc3ncn(C)c3C)O[C@@](C)(C(F)(F)F)[C@H]2C)ccc(F)c1F` [Compound 322, (2R,3S,4S,5R)-3-(3,4-difluoro-2-methoxyphenyl)-N-(1,5-dimethyl-1H-imidazol-4-yl)-4,5-dimethyl-5-(trifluoromethyl)-tetrahydrofuran-2-carboxamide], the IC50 was at least 1000 nM.

Turning to `COC[C@@H](O)Cn1cc(NC(=O)[C@@H]2O[C@@](C)(C(F)(F)F)[C@@H](C)[C@H]2c2ccc(F)c(F)c2OC)c(C)n1` [Compound 245, (2R,3S,4S,5R)-3-(3,4-difluoro-2-methoxyphenyl)-N-(1-((S)-2-hydroxy-3-methoxypropyl)-3-methyl-1H-pyrazol-4-yl)-4,5-dimethyl-5-(trifluoromethyl)tetrahydrofuran-2-carboxamide], the IC50 was 10 to 100 nM.

Turning to `CCOc1c([C@@H]2[C@@H](C(=O)Nc3ccn(C)c(=O)c3)O[C@](C)(C(F)(F)F)[C@@H]2C)ccc(F)c1F` (stereo in doubt) [Compound 102, rel-(2S,3R,4R,5S)-3-(2-ethoxy-3,4-difluorophenyl)-4,5-dimethyl-N-(1-methyl-2-oxo-1,2-dihydropyridin-4-yl)-5-(trifluoromethyl)tetrahydrofuran-2-carboxamide], the IC50 was at least 1000 nM.

`C[C@@H]1[C@H](c2ccc(F)c(F)c2OC(F)F)[C@@H](C(=O)Nc2ccc(CC(C)(C)O)nc2)O[C@]1(C)C(F)(F)F` (single isomer, unassigned) [Compound 461]: the IC50 was at least 1000 nM.

Regarding `C[C@@H]1[C@H](c2ccc(F)c(F)c2OC(F)F)[C@@H](C(=O)Nc2ccnc(C(O)CO)c2)O[C@]1(C)C(F)(F)F` (single isomer, unassigned) [Compound 81], the IC50 was 100 to 1000 nM.

For the molecule `COc1c([C@H]2[C@H](C(=O)Nc3ccc(-c4ccn(C)n4)nc3)O[C@@](C)(C(F)(F)F)[C@H]2C)ccc(F)c1F` [Compound 400, (2R,3S,4S,5R)-3-(3,4-difluoro-2-methoxyphenyl)-4,5-dimethyl-N-(6-(1-methyl-1H-pyrazol-3-yl)pyridin-3-yl)-5-(trifluoromethyl)-tetrahydrofuran-2-carboxamide], the IC50 was in the range of 100 to 1000 nM.

Turning to `COC[C@@H](C)Oc1c([C@H]2[C@H](C(=O)Nc3ccnc(CO)c3)O[C@@](C)(C(F)(F)F)[C@H]2C)ccc(F)c1F` [Compound 646, (2R,3S,4S,5R)-3-(3,4-difluoro-2-(((R)-1-methoxypropan-2-yl)oxy)phenyl)-N-(2-(hydroxymethyl)pyridin-4-yl)-4,5-dimethyl-5-(trifluoromethyl)tetrahydrofuran-2-carboxamide], the IC50 is below 10 nM.

Regarding `COc1c([C@H]2[C@H](C(=O)Nc3cc(C[C@H](O)CO)n(C)n3)O[C@@](C)(C(F)(F)F)[C@H]2C)ccc(F)c1F` [Compound 5, (2R,3S,4S,5R)-3-(3,4-difluoro-2-methoxyphenyl)-N-(5-((S)-2,3-dihydroxypropyl)-1-methyl-1H-pyrazol-3-yl)-4,5-dimethyl-5-(trifluoromethyl)tetrahydrofuran-2-carboxamide], the IC50 fell in the range of 10 to 100 nM.

`COc1c([C@H]2[C@H](C(=O)Nc3ccnc(S(=O)(=O)N(C)C)c3)O[C@@](C)(C(F)(F)F)[C@H]2C)ccc(F)c1F` (stereo in doubt) [Compound 449, rel-(2R,3S,4S,5R)-3-(3,4-difluoro-2-methoxyphenyl)-N-(2-(N,N-dimethylsulfamoyl)pyridin-4-yl)-4,5-dimethyl-5-(trifluoromethyl)tetrahydrofuran-2-carboxamide]: the IC50 is below 10 nM.

`C[C@H]1[C@@H](c2ccc(F)c(F)c2OCCO)[C@H](C(=O)Nc2cncnc2)O[C@@]1(C)C(F)(F)F` [Compound 539, (2R,3S,4S,5R)-3-(3,4-difluoro-2-(2-hydroxyethoxy)phenyl)-4,5-dimethyl-N-(pyrimidin-5-yl)-5-(trifluoromethyl)tetrahydrofuran-2-carboxamide]: the IC50 lay within 10 to 100 nM.

Take `COc1c([C@H]2[C@H](C(=O)Nc3cnc4c(c3)CCC4O)O[C@@](C)(C(F)(F)F)[C@H]2C)ccc(F)c1F` (single isomer, unassigned) [Compound 433, rel-(2R*,3S*,4S*,5R*)-3-(3,4-difluoro-2-methoxyphenyl)-N-(7-hydroxy-6,7-dihydro-5H-cyclopenta[b]pyridin-3-yl)-4,5-dimethyl-5-(trifluoromethyl)tetrahydrofuran-2-carboxamide]: the IC50 was in the range of 100 to 1000 nM.

On to `COCC(c1ccc(NC(=O)[C@@H]2O[C@@](C)(C(F)(F)F)[C@@H](C)[C@H]2c2ccc(F)c(F)c2OC)cn1)N1CCC1` (single isomer, unassigned) [Compound 407, rel-(2R*,3S*,4S*,5R*)-N-(6-(1-(azetidin-1-yl)-2-methoxyethyl)-pyridin-3-yl)-3-(3,4-difluoro-2-methoxyphenyl)-4,5-dimethyl-5-(trifluoromethyl)-tetrahydrofuran-2-carboxamide], for which the IC50 is at least 1000 nM.
